Legend:
[1] = Acute toxicity, LD50 by intravenous route in mice (Lichtfield and Wilcoxon); settings: mouse, in vivo
Procedure: The compounds of the invention as well as vincamine were administered by intravenous route to Charles River stock mice. The 50% lethal doses (LD50) where determined graphically according to the method of Lichtfield and Wilcoxon (J. Pharmacol. Exp. Therap. […], 96, 99).

mice = assay: Hypobaric anoxia test on mice; format: in vivo, mice (Charles River stock); settings: intragastric, 15 minutes before; for Survival time: 190 mm Hg (5.25% oxygen), control 39 (±2); for Survival time Variation %: 190 mm Hg, increase vs control animals
Procedure: Charles River stock mice of the same sex, weighing about 20±2 g are shared into three lots of 10 animals each. The lots 1 and 2 comprise treated animals, i.e. those having received either a substance to be tested or vincamine, together with solvent, at 1 ml/100 g of body weight. The third lot comprises control animals i.e. those having only received solvent at 1 ml/100 g of body weight.
The compounds examined are administered by intragastric route 15 minutes before the experiment.
The animals are placed in an atmosphere impoverished in oxygen by creating a partial vacuum (190 mm Hg, corresponding to 5.25% oxygen), in about 30 seconds.
The survival time of the mice is measured with a chronometer. Said time is increased by the agents capable of enhancing oxygenation of tissues and more particularly brain oxygenation. The percentages of survival time increase with respect to the values obtained for the control animals are calculated.
The doses were selected to obtain a 50-70% increase of the survival time of the animals under the experimental conditions.

Compound | LD50 ([1]; iv) | Survival time (mice; 30 mg/kg) | Survival time Variation % (mice; 30 mg/kg) | Survival time (mice; 20 mg/kg) | Survival time Variation % (mice; 20 mg/kg) | LD50 ([1]; mice, intravenous) | Survival time (mice; 200 mg/kg) | Survival time Variation % (mice; 200 mg/kg)
CC[C@]12C=CCN3CCc4c(n(c5ccc(Cl)cc45)[C@](O)(C(=O)OC)C1)[C@@H]32 [OC-231 E, 10-Chloro-16-epiΔ14-vincamine] | 47 mg/kg | 62 (±6) | +55% | – | – | – | – | –
CC[C@]12C=CCN3CCc4c(n(c5ccc(Cl)cc45)[C@@](O)(C(=O)OC)C1)[C@@H]32 [OC-231 N, 10-Chloro-Δ14-vincamine] | 47 mg/kg | 60 (±1) | +53% | – | – | – | – | –
CC[C@]12C=CCN3CCc4c(n(c5ccc(Cl)cc45)C(C(=O)OC)=C1)[C@@H]32 [OC-233, 10-Chloro-apo-Δ14-vincamine] | 52 mg/kg | – | – | 57 (±4) | +46% | – | – | –
CC[C@]12CCCN3CCc4c(n(c5ccccc45)[C@@](O)(C(=O)OC)C1)[C@@H]32 [Vincamine] | – | – | – | – | – | 47 mg/kg | 58 (±4) | +49%
